According to patent US5258401A, “Cholesterol lowering compounds” (Merck & Co., Inc., priority 1992, dated 1993):
Converted amounts (≈) assume the structure as drawn.

Legend:
Format in all cases: cell-based
Candida MY 1010 = assay: Antifungal inhibitor dilution assay in microtiter format (yeasts); details: MY1010, lowest concentration to prevent growth, read-out: Minimum Inhibitory Concentration
Procedure: (§1) The compounds are particularly active towards filamentous fungi and yeasts including Candida albicans and Cryptococcus neoformans. The sensitivity of filamentous fungi and yeast is determined using inhibitor dilution assays in microtiter format. The compounds are dissolved in DMSO at 2 mg/ml and serially diluted in 0.1M phosphate buffer, pH 7.0 in the microtiter dish from 100 to 0.006 μg/ml. A standardized spore suspension for testing the filamentous fungi is prepared by inoculating Antibiotic Medium #3 containing 1.5% agar with spores such that 1.5×10^3 colony forming units are added per well. The microtiter wells are filled with 50 μof buffer containing compound and 50 μl of inoculated medium.
(§2) The sensitivity of yeasts is determined by inoculating yeast nitrogen base containing 1% dextrose (YNB/G) with aliquots of an overnight yeast culture grown in Yeast Morphology (YM) media at 35° C. and diluting in YNB/G to yield a final concentration of 1.5-7.5×10^3 colony forming units/well. To test the sensitivity of yeast, compound is solubilized in 10 percent aqueous DMSO at 2.56 mg/ml. The compound is diluted serially in YNB/G from 128 to 0.06 μg/ml and further diluted 1:10 in YNB/G. The wells are filled with 150 μl of media containing drug. The minimum inhibitory concentration (MIC) is defined as the lowest concentration to prevent growth after an incubation for 42 hours, at 28° C. for the filamentous fungi and 24 to 48 hours, at 35° for the yeasts.

Candida MY 1012 = assay: as above; details: MY1012, lowest concentration to prevent growth, read-out: Minimum Inhibitory Concentration
Procedure: as §1, §2

Candida MY 1019 = assay: as above; details: MY1019, lowest concentration to prevent growth, read-out: Minimum Inhibitory Concentration
Procedure: as §1, §2

Candida MY 1028 = assay: as above; details: MY1028, lowest concentration to prevent growth, read-out: Minimum Inhibitory Concentration
Procedure: as §1, §2

Candida MY 1055 = assay: as above; details: MY1055, lowest concentration to prevent growth, read-out: Minimum Inhibitory Concentration
Procedure: as §1, §2

Candida MY 1750 = assay: as above; details: MY1750, lowest concentration to prevent growth, read-out: Minimum Inhibitory Concentration
Procedure: as §1, §2

Candida MY 2099 = assay: as above; details: MY2099, lowest concentration to prevent growth, read-out: Minimum Inhibitory Concentration
Procedure: as §1, §2

Cryptococcus MY 1051 = assay: as above; details: MY1051, lowest concentration to prevent growth, read-out: Minimum Inhibitory Concentration
Procedure: as §1, §2

Cryptococcus MY 1146 = assay: as above; details: MY1146, lowest concentration to prevent growth, read-out: Minimum Inhibitory Concentration
Procedure: as §1, §2

Cryptococcus MY 2061 = assay: as above; details: MY2061, lowest concentration to prevent growth, read-out: Minimum Inhibitory Concentration
Procedure: as §1, §2

Cryptococcus MY 2062 = assay: as above; details: MY2062, lowest concentration to prevent growth, read-out: Minimum Inhibitory Concentration
Procedure: as §1, §2

Sachromyces MY 1976 = assay: as above; details: lowest concentration to prevent growth, read-out: Minimum Inhibitory Concentration
Procedure: as §1, §2

Aspergillus MF 0383 = assay: Antifungal inhibitor dilution assay in microtiter format (filamentous fungi); details: MF0383, lowest concentration to prevent growth, read-out: Minimum Inhibitory Concentration
Procedure: as §1, §2

Aspergillus MF 4839 = assay: as above; details: MF4839, lowest concentration to prevent growth, read-out: Minimum Inhibitory Concentration
Procedure: as §1, §2

Aspergillus MF 5668 = assay: as above; details: MF5668, lowest concentration to prevent growth, read-out: Minimum Inhibitory Concentration
Procedure: as §1, §2

Aspergillus MF 5669 = assay: as above; details: MF5669, lowest concentration to prevent growth, read-out: Minimum Inhibitory Concentration
Procedure: as §1, §2

Structure (SMILES) | MIC (Candida MY 1010) [µg/mL] | MIC (Candida MY 1012) [µg/mL] | MIC (Candida MY 1019) [µg/mL] | MIC (Candida MY 1028) [µg/mL] | MIC (Candida MY 1055) [µg/mL] | MIC (Candida MY 1750) [µg/mL] | MIC (Candida MY 2099) [µg/mL] | MIC (Cryptococcus MY 1051) [µg/mL] | MIC (Cryptococcus MY 1146) [µg/mL] | MIC (Cryptococcus MY 2061) [µg/mL] | MIC (Cryptococcus MY 2062) [µg/mL] | MIC (Sachromyces MY 1976) [µg/mL] | MIC (Aspergillus MF 0383) [µg/mL] | MIC (Aspergillus MF 4839) [µg/mL] | MIC (Aspergillus MF 5668) [µg/mL] | MIC (Aspergillus MF 5669) [µg/mL]
C=C(CC[C@]12OC[C@@](O)(C(=O)O)[C@](C(=O)O)(O1)[C@H](OC(=O)/C=C/[C@@H](C)C[C@@H](C)CC)[C@H]2O)[C@@H](OC(C)=O)[C@H](C)Cc1ccccc1 [Zaragozic Acid A-3-Descarboxy, (1S,4S,5R,6R,7R)-1-[(4S)-acetoxy-3-methylene-(5R)-methyl-6-phenyl]hexyl-4,6,7-trihydroxy-6-O-((4S),(6S)-dimethyl-2-octenoyl)-2,8-dioxabicyclo-[3.2.1]octane-4,5-dicarboxylic acid] | 64 (≈ 99 µM) | 16 (≈ 24.7 µM) | > 128 | 32 (≈ 49.5 µM) | 64 (≈ 99 µM) | 64 (≈ 99 µM) | > 128 | 0.25 (≈ 0.387 µM) | 2 (≈ 3.09 µM) | 4 (≈ 6.18 µM) | 1 (≈ 1.55 µM) | > 128 | 2 (≈ 3.09 µM) | 8 (≈ 12.4 µM) | 32 (≈ 49.5 µM) | 8 (≈ 12.4 µM)
C=C(CC[C@]12OC[C@@](O)(C(=O)OCOC(=O)C(C)(C)C)[C@](C(=O)O)(O1)[C@H](OC(=O)/C=C/[C@@H](C)C[C@@H](C)CC)[C@H]2O)[C@@H](OC(C)=O)[C@H](C)Cc1ccccc1 [Zaragozic acid A-3-descarboxy-4-methyl pivalate ester] | > 128 | 16 (≈ 21 µM) | > 128 | > 128 | > 128 | > 128 | > 128 | 2 (≈ 2.63 µM) | 8 (≈ 10.5 µM) | 64 (≈ 84.1 µM) | 8 (≈ 10.5 µM) | > 128 | 1 (≈ 1.31 µM) | 32 (≈ 42.1 µM) | 32 (≈ 42.1 µM) | 32 (≈ 42.1 µM)
